Laboratory results as given in patent US20200038474A1, “COMPOSITION, USE AND METHOD FOR TREATING NEURODEGENERATIVE DISEASES” (FUNDAÇÃO BUTANTAN, priority 2016, published 2020).

Tests used:
[1] = test system: Experimental Autoimmune Encephalomyelitis; experiment: Experimental Autoimmune Encephalomyelitis (EAE) induced by MOG35-55, clinical signs scored 0 to 5; assay type: in vivo, female C57BL/6 mice
κ opioid receptor = details: literature report; cited from earlier work

Sequence: EFSPENCQGESQPC [Crotalphine]
- animals that reached clinical score 2 ([1]; single dose of 50 μg/kg on the 5th day after immunization, 100% of saline controls reached a score between 3 and 5): 43%
- severity of clinical signs ([1]; single dose of 50 μg/kg on the 5th day after immunization, vs saline control, n=8, p<0.05): significantly decreased the severity of clinical signs
- motor impairment in animal model of multiple sclerosis ([1]; summary statement): partially reverse the motor impairment
- antinociception (κ opioid receptor): induces antinociception mediated by κ opioid receptor activation
